Results on 6 molecules are retold here after patent publication US11701332B2, “Methods and compositions for treating female sexual interest and arousal disorder” (priority 2020, dated 2023).

For series [1] the following is noted: in vivo; cited from earlier work.
Series [2] has as its target peripheral androgen receptors (AR) (Homo sapiens, UniProt P10275). The note with it: 450 mg darolutamide twice daily, person. The procedure: A person diagnosed with FSIAD is administered a 30 mg testosterone enanthate injection weekly, and a dose of 450 mg of darolutamide twice daily to achieve partial (90%) AR blockage peripherally, rather than total (100%) AR blockage.

For series [3] the following is noted: in vivo; cited from earlier work. This is another data set of the same source.
The test system of series [4] is libido. Conditions: sublingual testosterone, short testosterone spike; cited from earlier work.
Series [5] deals with libido. Conditions: biological women receiving testosterone as part of gender transition therapy; cited from earlier work.
The conditions of series [6]: cited from earlier work.
Series [7] relates to libido. Conditions: after injection; cited from earlier work.

Chain of peripheral androgen receptors (AR) (P10275 whole entry): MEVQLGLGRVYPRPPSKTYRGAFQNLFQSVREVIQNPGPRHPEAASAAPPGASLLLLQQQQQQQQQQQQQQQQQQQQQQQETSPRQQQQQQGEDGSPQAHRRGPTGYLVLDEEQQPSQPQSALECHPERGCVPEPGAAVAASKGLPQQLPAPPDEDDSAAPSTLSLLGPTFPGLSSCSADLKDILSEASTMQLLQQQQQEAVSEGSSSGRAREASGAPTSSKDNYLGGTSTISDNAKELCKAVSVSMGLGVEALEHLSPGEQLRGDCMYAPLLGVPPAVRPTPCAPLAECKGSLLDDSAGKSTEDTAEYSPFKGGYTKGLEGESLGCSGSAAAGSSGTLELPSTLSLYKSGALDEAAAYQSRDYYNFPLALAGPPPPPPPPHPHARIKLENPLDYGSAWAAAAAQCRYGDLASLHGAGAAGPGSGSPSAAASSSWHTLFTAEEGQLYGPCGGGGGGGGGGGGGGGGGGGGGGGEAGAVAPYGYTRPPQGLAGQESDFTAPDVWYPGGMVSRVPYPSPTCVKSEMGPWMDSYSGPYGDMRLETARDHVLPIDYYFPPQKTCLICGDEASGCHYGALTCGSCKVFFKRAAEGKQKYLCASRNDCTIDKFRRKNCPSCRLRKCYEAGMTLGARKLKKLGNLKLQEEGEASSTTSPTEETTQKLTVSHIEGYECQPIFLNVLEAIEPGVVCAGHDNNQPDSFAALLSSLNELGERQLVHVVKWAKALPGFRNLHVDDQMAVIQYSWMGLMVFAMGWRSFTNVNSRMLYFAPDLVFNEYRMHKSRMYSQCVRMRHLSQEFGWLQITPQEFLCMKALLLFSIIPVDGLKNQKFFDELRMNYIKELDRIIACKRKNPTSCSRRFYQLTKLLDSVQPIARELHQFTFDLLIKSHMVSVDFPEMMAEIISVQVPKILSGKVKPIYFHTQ

As to `CC(O)c1cc(C(=O)N[C@@H](C)Cn2ccc(-c3ccc(C#N)c(Cl)c3)n2)[nH]n1` (stereo partly drawn) [darolutamide], in series [1], the adverse effects entry is “does not cause major adverse effects”. Besides, the AR blockage peripherally in series [2] amounted to 90%. Further, the “crossing of the blood-brain barrier” value in series [3] is on record as “do not cross the blood-brain barrier”.

In the case of `CC(O)(CS(=O)(=O)c1ccc(F)cc1)C(=O)Nc1ccc(C#N)c(C(F)(F)F)c1` (stereo not drawn) [bicalutamide], the “crossing of the blood-brain barrier” value in series [3] is “do not cross the blood-brain barrier”.

As to `C[C@]12CC[C@H]3[C@@H](CCC4=CC(=O)CC[C@@]43C)[C@@H]1CC[C@@H]2O` [testosterone], the “time until libido boost” value in series [4] is 3.5 h. Also, the “women reporting an increase in libido” value in series [5] is on record as 71%.

For the molecule `C[C@H]1CC(=O)C[C@@H]2CC[C@H]3[C@@H]4CC[C@H](O)[C@@]4(C)CC[C@@H]3[C@]21C` [mesterolone], in series [6], the oral bioavailability was 3%.

On to `O=c1[nH]c2ccccc2n1CCN1CCN(c2cccc(C(F)(F)F)c2)CC1` [flibanserin], for which, in series [1], the adverse effects result is on record as “low blood pressure”.

As for `CCCC[C@H](NC(C)=O)C(=O)N[C@H]1CC(=O)NCCCC[C@@H](C(=O)O)NC(=O)[C@H](Cc2c[nH]c3ccccc23)NC(=O)[C@H](CCCN=C(N)N)NC(=O)[C@@H](Cc2ccccc2)NC(=O)[C@H](Cc2cnc[nH]2)NC1=O` [bremelanotide], the libido boost result in series [7] is recorded as “temporary libido boost shortly after injection”.
